Measurements reported in PubChem BioAssay (NCI).
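48-hour exposure; five concentrations; linearly interpolated endpoints. Here, GI50 denotes the concentration required for 50% inhibition of growth. At the TGI there is no net growth.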

Tests used:
Test in all cases: growth of human tumour cells (NCI), 48 h
786-0 renal = tested on: 786-0 renal
A498 renal = tested on: A498 renal
A549 NSCLC = tested on: A549 NSCLC
ACHN renal = tested on: ACHN renal
BT-549 breast = tested on: BT-549 breast
CAKI-1 renal = tested on: CAKI-1 renal
CCRF-CEM leukemia = tested on: CCRF-CEM leukemia
COLO 205 colon = tested on: COLO 205 colon
DU-145 prostate = tested on: DU-145 prostate
EKVX NSCLC = tested on: EKVX NSCLC
HCC-2998 colon = tested on: HCC-2998 colon
HCT-116 colon = tested on: HCT-116 colon
HCT-15 colon = tested on: HCT-15 colon
HL-60(TB) leukemia = tested on: HL-60(TB) leukemia
HOP-62 NSCLC = tested on: HOP-62 NSCLC
HOP-92 NSCLC = tested on: HOP-92 NSCLC
HS 578T breast = tested on: HS 578T breast
HT29 colon = tested on: HT29 colon
IGROV1 ovarian = tested on: IGROV1 ovarian
K-562 leukemia = tested on: K-562 leukemia
KM12 colon = tested on: KM12 colon
LOX IMVI melanoma = tested on: LOX IMVI melanoma
M14 melanoma = tested on: M14 melanoma
MALME-3M melanoma = tested on: MALME-3M melanoma
MCF7 breast = tested on: MCF7 breast
MDA-MB-231 breast = tested on: MDA-MB-231 breast
MDA-MB-435 = tested on: MDA-MB-435
MDA-MB-468 breast = tested on: MDA-MB-468 breast
MOLT-4 leukemia = tested on: MOLT-4 leukemia
NCI-H226 lung = tested on: NCI-H226 lung
NCI-H23 lung = tested on: NCI-H23 lung
NCI-H460 lung = tested on: NCI-H460 lung
NCI-H522 lung = tested on: NCI-H522 lung
OVCAR-3 ovarian = tested on: OVCAR-3 ovarian
OVCAR-4 ovarian = tested on: OVCAR-4 ovarian
OVCAR-5 ovarian = tested on: OVCAR-5 ovarian
OVCAR-8 ovarian = tested on: OVCAR-8 ovarian
PC-3 prostate = tested on: PC-3 prostate
RPMI-8226 leukemia = tested on: RPMI-8226 leukemia
RXF 393 renal = tested on: RXF 393 renal
SF-268 CNS = tested on: SF-268 CNS
SF-295 CNS = tested on: SF-295 CNS
SF-539 CNS = tested on: SF-539 CNS
SK-MEL-2 melanoma = tested on: SK-MEL-2 melanoma
SK-MEL-28 melanoma = tested on: SK-MEL-28 melanoma
SK-MEL-5 melanoma = tested on: SK-MEL-5 melanoma
SK-OV-3 ovarian = tested on: SK-OV-3 ovarian
SN12C renal = tested on: SN12C renal
SNB-19 CNS = tested on: SNB-19 CNS
SNB-75 CNS = tested on: SNB-75 CNS
SR leukemia = tested on: SR leukemia
SW-620 colon = tested on: SW-620 colon
T-47D breast = tested on: T-47D breast
TK-10 renal = tested on: TK-10 renal
U251 CNS = tested on: U251 CNS
UACC-257 melanoma = tested on: UACC-257 melanoma
UACC-62 melanoma = tested on: UACC-62 melanoma
UO-31 renal = tested on: UO-31 renal

## C=C1CCC2C3(C)COC(c4c(F)cccc4F)OC3CCC2(C)C1C/C=C1/C(=O)OCC1O (configuration not stated)
786-0 renal
  GI50: 1.8 µM
  TGI: 3.28 µM
A498 renal
  GI50: 19.8 µM
  TGI: 34.5 µM
A549 NSCLC
  GI50: 4.05 µM
  TGI: 17.2 µM
ACHN renal
  GI50: 1.75 µM
  TGI: 3.16 µM
BT-549 breast
  GI50: 1.89 µM
  TGI: 4.17 µM
CAKI-1 renal
  GI50: 3.38 µM
  TGI: 11.3 µM
CCRF-CEM leukemia
  GI50: 2.24 µM
  TGI: 6.68 µM
COLO 205 colon
  GI50: 2.43 µM
  TGI: 5.27 µM
DU-145 prostate
  GI50: 4.16 µM
  TGI: 14.9 µM
EKVX NSCLC
  GI50: 13 µM
  TGI: 26.1 µM
HCC-2998 colon
  GI50: 4.26 µM
  TGI: 15.8 µM
HCT-116 colon
  GI50: 1.61 µM
  TGI: 3.04 µM
HCT-15 colon
  GI50: 1.75 µM
  TGI: 4.12 µM
HL-60(TB) leukemia
  GI50: 2 µM
  TGI: 5.03 µM
HOP-62 NSCLC
  GI50: 11.3 µM
  TGI: 24 µM
HOP-92 NSCLC
  GI50: 2.94 µM
  TGI: 9.34 µM
HS 578T breast
  GI50: 3.92 µM
  TGI: 30.5 µM
HT29 colon
  GI50: 2.06 µM
  TGI: 4.26 µM
IGROV1 ovarian
  GI50: 4.56 µM
  TGI: 16.5 µM
K-562 leukemia
  GI50: 3.12 µM
  TGI: 11.3 µM
KM12 colon
  GI50: 2.54 µM
  TGI: 6.88 µM
LOX IMVI melanoma
  GI50: 1.59 µM
  TGI: 2.93 µM
M14 melanoma
  GI50: 3.34 µM
  TGI: 12 µM
MALME-3M melanoma
  GI50: 3.55 µM
  TGI: 12.8 µM
MCF7 breast
  GI50: 1.95 µM
  TGI: 5.48 µM
MDA-MB-231 breast
  GI50: 2.29 µM
  TGI: 5.45 µM
MDA-MB-435
  GI50: 1.97 µM
  TGI: 4.37 µM
MDA-MB-468 breast
  GI50: 1.78 µM
  TGI: 3.58 µM
MOLT-4 leukemia
  GI50: 3.37 µM
  TGI: 11.1 µM
NCI-H226 lung
  GI50: 1.78 µM
  TGI: 3.42 µM
NCI-H23 lung
  GI50: 5.66 µM
  TGI: 18.5 µM
NCI-H460 lung
  GI50: 3.06 µM
  TGI: 11.8 µM
NCI-H522 lung
  GI50: 1.65 µM
  TGI: 3.23 µM
OVCAR-3 ovarian
  GI50: 2.02 µM
  TGI: 4.12 µM
OVCAR-4 ovarian
  GI50: 2.58 µM
  TGI: 7.77 µM
OVCAR-5 ovarian
  GI50: 2.17 µM
  TGI: 5.06 µM
OVCAR-8 ovarian
  GI50: 2.26 µM
  TGI: 7.04 µM
PC-3 prostate
  GI50: 3.61 µM
  TGI: 13.4 µM
RPMI-8226 leukemia
  GI50: 2.37 µM
  TGI: 5.77 µM
RXF 393 renal
  GI50: 3.46 µM
  TGI: 11.4 µM
SF-268 CNS
  GI50: 4.4 µM
  TGI: 17.2 µM
SF-295 CNS
  GI50: 1.94 µM
  TGI: 4.67 µM
SF-539 CNS
  GI50: 1.81 µM
  TGI: 3.3 µM
SK-MEL-2 melanoma
  GI50: 2.88 µM
  TGI: 8.52 µM
SK-MEL-28 melanoma
  GI50: 2.19 µM
  TGI: 4.9 µM
SK-MEL-5 melanoma
  GI50: 4.53 µM
  TGI: 16.4 µM
SK-OV-3 ovarian
  GI50: 17.8 µM
  TGI: 32.4 µM
SN12C renal
  GI50: 1.81 µM
  TGI: 4.2 µM
SNB-19 CNS
  GI50: 8.4 µM
  TGI: 20.8 µM
SNB-75 CNS
  GI50: 3.75 µM
  TGI: 16.4 µM
SR leukemia
  GI50: 3.7 µM
  TGI: 12.5 µM
SW-620 colon
  GI50: 1.8 µM
  TGI: 3.63 µM
T-47D breast
  GI50: 3.25 µM
  TGI: 17.6 µM
TK-10 renal
  GI50: 6.18 µM
  TGI: 19.4 µM
U251 CNS
  GI50: 1.81 µM
  TGI: 3.45 µM
UACC-257 melanoma
  GI50: 2.28 µM
  TGI: 8.77 µM
UACC-62 melanoma
  GI50: 3.13 µM
  TGI: 12 µM
UO-31 renal
  GI50: 1.73 µM
  TGI: 3.99 µM

## O=C(c1ccc(Cl)cc1)C1[C@H](c2ccccc2Br)[C@@H](c2ccccc2)NC12C(=O)Nc1ccccc12 (some centres not stated)
786-0 renal
  GI50: 7.3 µM
  TGI: 21.9 µM
A498 renal
  GI50: 8.75 µM
  TGI: 21.6 µM
A549 NSCLC
  GI50: 2.71 µM
  TGI: 25 µM
ACHN renal
  GI50: 6.01 µM
  TGI: 44.4 µM
BT-549 breast
  GI50: 2.4 µM
  TGI: 10.5 µM
CAKI-1 renal
  GI50: 1.67 µM
  TGI: > 56 µM
CCRF-CEM leukemia
  GI50: 3.27 µM
  TGI: 29.8 µM
COLO 205 colon
  GI50: 7.71 µM
  TGI: 15.6 µM
DU-145 prostate
  GI50: 2.66 µM
  TGI: 16.4 µM
EKVX NSCLC
  GI50: 6.22 µM
  TGI: > 56 µM
HCC-2998 colon
  GI50: 6.32 µM
  TGI: 17.8 µM
HCT-116 colon
  GI50: 2.15 µM
  TGI: 9.06 µM
HCT-15 colon
  GI50: 4.03 µM
  TGI: > 56 µM
HL-60(TB) leukemia
  GI50: 1.92 µM
  TGI: 19.1 µM
HOP-62 NSCLC
  GI50: 6.54 µM
  TGI: 16.5 µM
HOP-92 NSCLC
  GI50: 2.06 µM
  TGI: 14.5 µM
HS 578T breast
  GI50: 2.51 µM
  TGI: 15.6 µM
HT29 colon
  GI50: 2.46 µM
  TGI: 9.82 µM
IGROV1 ovarian
  GI50: 5.92 µM
  TGI: 26.1 µM
K-562 leukemia
  GI50: 2.04 µM
  TGI: 28.3 µM
KM12 colon
  GI50: 7.5 µM
  TGI: 25.2 µM
LOX IMVI melanoma
  GI50: 1.99 µM
  TGI: 8.86 µM
M14 melanoma
  GI50: 4.86 µM
  TGI: 13.7 µM
MALME-3M melanoma
  GI50: 6.46 µM
  TGI: 14.5 µM
MCF7 breast
  GI50: 1.81 µM
  TGI: > 56 µM
MDA-MB-231 breast
  GI50: 1.72 µM
  TGI: 7.13 µM
MDA-MB-435
  GI50: 2.58 µM
  TGI: 10.8 µM
MDA-MB-468 breast
  GI50: 1.11 µM
  TGI: 3.33 µM
MOLT-4 leukemia
  GI50: 2.06 µM
  TGI: 18.5 µM
NCI-H226 lung
  GI50: 3.85 µM
  TGI: 13.6 µM
NCI-H23 lung
  GI50: 5.78 µM
  TGI: 17.3 µM
NCI-H460 lung
  GI50: 2.3 µM
  TGI: 11.2 µM
NCI-H522 lung
  GI50: 1.3 µM
  TGI: 5.72 µM
OVCAR-3 ovarian
  GI50: 2.39 µM
  TGI: 14 µM
OVCAR-4 ovarian
  GI50: 7.11 µM
  TGI: > 56 µM
OVCAR-5 ovarian
  GI50: 6.34 µM
  TGI: 29.7 µM
OVCAR-8 ovarian
  GI50: 6.72 µM
  TGI: 19.9 µM
PC-3 prostate
  GI50: 2.03 µM
  TGI: 18.6 µM
RPMI-8226 leukemia
  GI50: 5.43 µM
  TGI: 32.6 µM
RXF 393 renal
  GI50: 1.77 µM
  TGI: 7.57 µM
SF-268 CNS
  GI50: 2.92 µM
  TGI: 40.2 µM
SF-295 CNS
  GI50: 3.79 µM
  TGI: 15.2 µM
SF-539 CNS
  GI50: 7.14 µM
  TGI: 15.7 µM
SK-MEL-2 melanoma
  GI50: 4.44 µM
  TGI: 11.9 µM
SK-MEL-28 melanoma
  GI50: 7.44 µM
  TGI: 16.3 µM
SK-MEL-5 melanoma
  GI50: 2.42 µM
  TGI: 9.07 µM
SK-OV-3 ovarian
  GI50: 3.87 µM
  TGI: 37 µM
SN12C renal
  GI50: 2.74 µM
  TGI: 10 µM
SNB-19 CNS
  GI50: 10.8 µM
  TGI: > 56 µM
SNB-75 CNS
  GI50: 0.765 µM
  TGI: 27.9 µM
SR leukemia
  GI50: 2 µM
  TGI: 14 µM
SW-620 colon
  GI50: 3.43 µM
  TGI: 33.9 µM
T-47D breast
  GI50: 3.46 µM
  TGI: 49 µM
TK-10 renal
  GI50: 9.48 µM
  TGI: 40.7 µM
U251 CNS
  GI50: 3.16 µM
  TGI: 16 µM
UACC-257 melanoma
  GI50: 4.84 µM
  TGI: 20.7 µM
UACC-62 melanoma
  GI50: 2.11 µM
  TGI: 8.87 µM
UO-31 renal
  GI50: 2.49 µM
  TGI: 29.3 µM
